# Data published in patent US10111822B2, “External dermal composition for anti-ageing and method for producing the same” (Hayashibara Co., Ltd., priority 2012, dated 2018).
# System: hyaluronic acid
# Test: Hyaluronic acid production in NHEK cells (ELISA)
# Type: cell-based, human
# Settings: 3 days, control 1003 ± 111.6
# Description: In accordance with “Evaluation Method for Enhancing Hyaluronic acid Synthesis” disclosed in “Evaluation and Experimental Manual for Humectancy, Skin whitening, Anti-wrinkle, and Anti-oxidation”, edited by Hitoshi Masaki, published by Fragrance Journal, pp. 94 to 97, 2012, NHEK cells as a model for typical normal human epidermal cells were suspended in EpiLife medium (pH 7.4), commercialized by Invitrogen Corporation, Calif., USA, inoculated to 12-well microplates at a cell density of 5×10^4 cells/well, and incubated overnight under conditions of 37° C. and 5% v/v CO2. Thereafter, the cell culture medium was replaced with a fresh HuMedia-KG2 medium commercialized by Kurabo Industries Ltd., Osaka, Japan; and “AA2G”, a particulate composition containing anhydrous crystalline ascorbic acid 2-glucoside, commercialized by Hayashibara Co., Ltd., Okayama, Japan, was added to each well to give a final concentration of 0.25, 0.5, or 1 mM, followed by culturing the cells for three days under the conditions of 37° C. and 5% v/v CO2. After completion of the culture, the supernatant in each well was immediately collected and quantified for hyaluronic acid by “Hyaluronan, DuoSet Kit”, product code: DY3614, a product name of a commercialized enzyme-linked immunosorbent assay (ELISA) purchased from R & D Systems, Minneapolis, USA. As a control, there was provided a culture system, where cells are cultured similarly as above except for not adding ascorbic acid 2-glucoside.
structure (smiles),measurement,setting,value
"O=C1O[C@H]([C@@H](O)CO)C(O)=C1O[C@H]1O[C@H](CO)[C@@H](O)[C@H](O)[C@H]1O [ascorbic acid 2-glucoside, 2-O-α-D-glucosyl-L-ascorbic acid]",Hyaluronic acid concentration in culture supernatant,0.25 mM,1222 ± 93.6 ng/mL
same,Hyaluronic acid concentration in culture supernatant,0.5 mM,1268 ± 125.2 ng/mL
same,Hyaluronic acid concentration in culture supernatant,1 mM,1436 ± 216 ng/mL
